Read-outs that look alike come from different tables or passages of the source. One block for each compound: values may come before it.
Experiments:
[1] = test system: pressure-induced pancreatitis; experiment: ERCP pressure-induced pancreatitis, nicotinic agonists; assay type: in vivo
Excerpt: GTS-21 (DMXBA) is a derivative of the natural product anabaseine that acts as a partial agonist at neural nicotinic acetylcholine receptors. GTS-21 is 3-2,4-dimethoxybenzylidene anabaseine.

[2] = test system: ERCP pancreatitis in mice; experiment: ERCP pancreatitis mouse model (retrograde pancreatic duct infusion); assay type: in vivo; details: mice on low phosphate diet; 200 μg/g intraperitoneal 1 and 4 hours after induction; 24 hours
Excerpt: For this study, a mouse model of this form of pancreatitis was employed.

[3] = test system: ethanol-induced pancreatitis in mice
Excerpt: These findings raise the question of whether phosphate deficiency contributes to the progression of pancreatitis. This may be particularly relevant to alcohol-induced pancreatitis, given that alcoholic patients are susceptible to hypophosphatemia due to nutritional deficiencies and the effects of alcohol ingestion on phosphate absorption. Therefore, it was hypothesized that low phosphate levels may be predispose to alcohol-induced pancreatic injury. To test this hypothesis, we placed mice on a low phosphate diet and determined their susceptibility to ethanol. Animals were placed on a chow diet containing low amounts of phosphate (Pi) for three weeks. The low phosphate diet (Envigo #TD.140659) was comprised of 0.02% Pi compared to normal chow diet which contained 1% Pi. Serum levels of phosphate declined in mice on a low phosphate diet from normal values of 2.2 mM to 1.4 mM (FIG. 12). In order to determine if the diet rendered mice more sensitive to ethanol, mice were administered ethanol by orogastric gavage at […] (30% ethanol at 10 mL/kg) daily for five days (Control mice were gavaged with water). Mice were euthanized 12 hours after the last dose of ethanol. The pancreatitis severity scoring system is a composite of edema, necrosis, inflammatory cell infiltration and hemorrhage severity as previously published. […]

[4] = target: T1, Piezol (Mus musculus, UniProt E2JF22); experiment: Yoda1 activation of Piezol in pancreatic acinar cells; assay type: cell-based, mice
T1 construct: endogenous in cells; host or cells: isolated pancreatic acini / acinar cells (primary, mouse)
T1 sequence (E2JF22 whole entry): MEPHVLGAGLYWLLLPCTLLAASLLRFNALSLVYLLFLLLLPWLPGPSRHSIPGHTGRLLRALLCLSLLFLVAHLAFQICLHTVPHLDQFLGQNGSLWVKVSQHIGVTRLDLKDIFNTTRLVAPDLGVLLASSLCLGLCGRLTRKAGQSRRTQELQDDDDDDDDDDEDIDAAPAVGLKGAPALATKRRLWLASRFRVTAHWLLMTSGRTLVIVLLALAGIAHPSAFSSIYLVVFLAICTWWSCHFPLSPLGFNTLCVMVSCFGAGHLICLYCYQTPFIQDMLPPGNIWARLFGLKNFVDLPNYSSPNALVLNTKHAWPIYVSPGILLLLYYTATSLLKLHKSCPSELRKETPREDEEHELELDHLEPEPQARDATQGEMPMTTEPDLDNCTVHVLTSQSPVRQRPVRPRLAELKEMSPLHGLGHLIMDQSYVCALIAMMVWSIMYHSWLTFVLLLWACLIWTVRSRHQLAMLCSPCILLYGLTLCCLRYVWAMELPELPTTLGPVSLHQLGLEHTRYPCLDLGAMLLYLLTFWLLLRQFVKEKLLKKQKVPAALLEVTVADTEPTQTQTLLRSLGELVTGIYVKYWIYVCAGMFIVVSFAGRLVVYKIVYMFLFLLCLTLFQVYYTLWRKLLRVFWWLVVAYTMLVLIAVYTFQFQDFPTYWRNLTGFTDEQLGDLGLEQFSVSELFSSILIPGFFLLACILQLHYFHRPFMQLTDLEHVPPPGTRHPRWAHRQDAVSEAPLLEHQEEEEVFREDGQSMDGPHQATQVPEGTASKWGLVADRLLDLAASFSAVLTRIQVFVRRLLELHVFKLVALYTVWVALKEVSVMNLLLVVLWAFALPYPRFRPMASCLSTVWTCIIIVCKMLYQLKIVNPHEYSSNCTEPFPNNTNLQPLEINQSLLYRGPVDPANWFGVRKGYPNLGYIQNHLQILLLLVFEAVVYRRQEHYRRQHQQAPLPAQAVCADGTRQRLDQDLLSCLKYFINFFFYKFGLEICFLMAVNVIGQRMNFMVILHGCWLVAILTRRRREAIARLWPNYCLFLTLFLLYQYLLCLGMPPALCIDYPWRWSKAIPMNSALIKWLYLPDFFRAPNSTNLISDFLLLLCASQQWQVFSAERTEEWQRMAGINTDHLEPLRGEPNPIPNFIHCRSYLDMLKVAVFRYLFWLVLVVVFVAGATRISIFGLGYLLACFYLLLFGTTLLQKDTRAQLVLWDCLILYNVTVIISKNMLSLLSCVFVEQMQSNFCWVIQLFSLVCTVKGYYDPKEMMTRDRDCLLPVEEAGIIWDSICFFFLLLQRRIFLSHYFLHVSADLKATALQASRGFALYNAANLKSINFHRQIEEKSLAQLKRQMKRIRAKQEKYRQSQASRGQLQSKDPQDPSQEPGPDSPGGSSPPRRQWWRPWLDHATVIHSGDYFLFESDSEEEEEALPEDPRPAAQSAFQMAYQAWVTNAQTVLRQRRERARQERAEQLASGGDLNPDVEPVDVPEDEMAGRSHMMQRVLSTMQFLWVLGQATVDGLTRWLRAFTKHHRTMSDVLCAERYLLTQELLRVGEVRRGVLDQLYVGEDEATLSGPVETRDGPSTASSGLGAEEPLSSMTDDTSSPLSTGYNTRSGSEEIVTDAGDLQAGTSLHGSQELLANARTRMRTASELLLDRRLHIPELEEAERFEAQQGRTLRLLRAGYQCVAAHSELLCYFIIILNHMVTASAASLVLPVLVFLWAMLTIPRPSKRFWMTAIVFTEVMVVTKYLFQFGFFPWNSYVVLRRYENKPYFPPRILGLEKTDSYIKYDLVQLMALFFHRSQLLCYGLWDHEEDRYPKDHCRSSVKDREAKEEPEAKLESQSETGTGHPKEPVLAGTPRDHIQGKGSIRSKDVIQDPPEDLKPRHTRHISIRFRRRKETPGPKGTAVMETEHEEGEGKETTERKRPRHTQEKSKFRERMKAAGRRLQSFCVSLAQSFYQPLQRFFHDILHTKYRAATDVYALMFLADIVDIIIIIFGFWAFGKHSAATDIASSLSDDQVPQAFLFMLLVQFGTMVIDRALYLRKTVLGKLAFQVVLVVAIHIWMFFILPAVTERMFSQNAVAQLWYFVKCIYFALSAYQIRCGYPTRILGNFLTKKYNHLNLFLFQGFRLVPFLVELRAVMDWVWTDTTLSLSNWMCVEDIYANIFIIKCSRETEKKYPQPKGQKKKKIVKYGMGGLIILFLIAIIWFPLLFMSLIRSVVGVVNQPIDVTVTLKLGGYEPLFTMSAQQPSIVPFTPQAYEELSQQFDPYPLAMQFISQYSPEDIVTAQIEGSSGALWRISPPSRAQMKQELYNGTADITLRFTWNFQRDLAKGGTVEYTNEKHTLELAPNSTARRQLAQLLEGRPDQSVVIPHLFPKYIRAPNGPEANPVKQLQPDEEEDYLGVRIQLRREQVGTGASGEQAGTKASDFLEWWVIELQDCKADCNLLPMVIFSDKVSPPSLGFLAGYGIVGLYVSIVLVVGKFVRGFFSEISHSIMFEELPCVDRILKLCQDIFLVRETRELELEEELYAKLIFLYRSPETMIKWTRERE
Protocol: Pathological activation of Piezol leads to [Ca^2+]i overload, mitochondrial dysfunction, trypsinogen activation, and acinar cell necrosis. Moreover, Piezol activation explains how elevation of intrapancreatic duct pressure (e.g., ERCP or gallstone impaction) causes pancreatitis. Piezol can be activated by mechanical pushing or shear stress. A method for studying the effects of shear stress on isolated pancreatic acini in vitro was developed. Pancreatic acini are cultured on Matrigel and placed into a fluid flow chamber. Cells can be loaded with either the calcium sensitive dye, Calcium 6-QF (Molecular Devices), or the active trypsin enzyme substrate BZiPAR [rhodamine 110, bis(CBZ-L-isoleucyl-L-prolyl-L-arginine amide)] (10 μM) and imaged using a fluorescence microscope while fluid flow is regulated to control the level of shear stress.
As shown in FIG. 11(A)-(C), subjecting acinar cells to fluid shear stress at 12 dyne/cm^2 produced a prolonged increase in [Ca^2+]i similar to that seen with supramaximal, pathological concentrations of caerulein and was sufficient to cause trypsin activation. Shear pressure also led to mitochondrial membrane depolarization indicating mitochondrial dysfunction. These effects are specific for Piezol since changes were not observed in Piezol1^aci knockout mice. Yoda1 is a selective agonist for Piezol and can be used to simulate pressure by chemically activating Piezol. […] In order to determine if phosphate might protect against pressure-induced pancreatitis, we observed that phosphate supplementation reduced Yoda1-stimulated elevations in [Ca^2+]i and LDH release.

[5] = test system: isolated mouse pancreatic acini; experiment: Caerulein-induced injury in isolated pancreatic acini; assay type: cell-based; details: for caerulein-induced damage (release of trypsin, IL-1β and LDH): 1, 5 or 10 mM sodium phosphate, pH 7.4, caerulein 10 nM for 30 minutes
Excerpt: To evaluate the effects of phosphate on acinar cell function pancreatic acini in vitro were examined High concentrations of caerulein in vitro induce pancreatic injury similar to the effects observed in vivo and this method has been used to study direct effects on pancreatic acinar cells. Specifically, caerulein causes pancreatitis by hyperstimulating the acinar cells through the CCK1 receptor. In isolated pancreatic acini, caerulein causes trypsin activation, generation of the proinflammatory cytokine cytosolic […], and cell necrosis as manifest by LDH release. Each of these pathological results is seen with caerulein hyperstimulation in vivo.
It was observed that phosphate supplementation, independent of its buffering effects, reduced caerulein-induced LDH release, a marker of cell damage (FIG. 4). In addition, it was sought to determine if lack of ATP contributes to pancreatitis and whether the protective effects of phosphate are through restoration of intracellular ATP levels. […] Isolated mouse pancreatic acini were treated with caerulein in buffer containing Na2HPO4 concentrations of 1-10 mM. Supernatant LDH was measured by commercial LDH assay. Cytosolic ATP levels were measured using a commercially available fluorometric assay. *P<0.05, **<0.01, ***<0.001.
All solutions were adjusted to pH 7.4. A supramaximal concentration of caerulein (10 nM) was added for 30 minutes as indicated after which media were analyzed for release of trypsin, IL-1β and LDH. (*P<0.05, **P<0.01, ***P<0.001).
Mitochondrial membrane potential was measured in isolated pancreatic acini using tetramethylrhodamine ethyl ester (TMRE) fluorescence.
Specifically, isolated pancreatic acini were loaded with the mitochondrial fluorescent dye TMRE and incubated in phosphate-free buffer with a supramaximal concentration of caerulein (10 nM). TMRE fluorescence and intracellular ATP levels were measure after 30 minutes. *P<0.05, ****P<0.0001.
Isolated pancreatic acini loaded with TMRE were incubated in buffer with 0 or 5 mM phosphate (left panel). Effects of increasing phosphate concentrations on ATP production are shown in the right panel. *P<0.05, **P<0.01, ****P<0.0001. These findings illustrate the requirement for Pi in maintaining and restoring mitochondrial function and ATP synthesis under the stress of caerulein hyperstimulation.

[6] = test system: caerulein-treated mice; experiment: Caerulein-induced pancreatitis in mice; assay type: in vivo; details: 250 μg/g Na2HPO4 1 hour after first of 6 hourly caerulein injections (50 ng/g); vs normal saline
Excerpt: Caerulein-induced pancreatitis in mice is an established model of acute experimental pancreatitis. Hyperstimulation of the pancreas by cholecystokinin or its analogue caerulein is a commonly used model of experimental acute pancreatitis in rodents. Caerulein produces mild to moderate, non-fatal pancreatitis that resolves spontaneously.
As shown in FIGS. 3A-3C, phosphate supplementation reduced all parameters of pancreatitis following caerulein administration including serum amylase levels (FIG. 3A), pancreatic MPO levels (FIG. 3B) and pancreatic histology (FIG. 3C). Specifically, mice (C56BL/6 adult mice) were treated with 6 hourly injections of caerulein sulfate (50 ng/g) by intraperitoneal injection. Sodium phosphate (250 μg/g Na2HPO4) and normal saline (NS) were given 1 hour after the first injection. The study was terminated 1 hour after the last caerulein injection at which time, blood and pancreas tissue are collected for measurements of serum amylase, and pancreatic edema, MPO, and histological pancreatitis severity. Pancreatic myeloperoxidase (MPO) and serum amylase levels were measured by commercially available assays. **P<0.01 vs. normal saline in caerulein-treated mice.

[7] = test system: pancreatic acini from C57BL/6J mice; assay type: cell-based; details: 50 mM ethanol
Protocol: In order to determine the effect of ethanol exposure and phosphate levels on acinar cell function, studies were conducted in vitro. Pancreata was harvested from ND-fed and LPD-fed C57BL/6J mice and isolated acinar cells using phosphate-free buffer solutions. Acinar cell function was assessed at various concentrations of ethanol (0-50 mM).
Next, it was investigated as to whether phosphate supplementation could preserve pancreatic acinar cell function. Pancreatic acini from LPD-fed mice were isolated in phosphate-free buffer and treated with 50 mM ethanol and 0-5 mM Na2HPO4.
To further explore the mechanism underlying the effect of phosphate on ethanol-induced acinar cell dysfunction, cellular ATP content and mitochondrial function was investigated.
In order to determine if phosphate sensitizes mitochondria to the effects of alcohol, we measured TMRE fluorescence intensity, a measure of mitochondrial membrane potential that indicates normal mitochondrial function.
Pancreatic acini from LPD-fed mice were again isolated in phosphate-free buffer and treated with 50 mM ethanol and 0-5 mM Na2HPO4.

[8] = LPD-derived acini, phosphate-free buffer
[9] = ERCP pressure-induced pancreatic inflammation
[10] = caerulein 10 nM, phosphate-free buffer, 30 minutes

Compound: COc1ccc(/C=C2\CCCN=C2c2cccnc2)c(OC)c1 [GTS-21, 3-2,4-dimethoxybenzylidene anabaseine]
- protection of the pancreas against pressure-induced pancreatitis ([1]; prior splenectomy): abolished
- protection against pressure-induced acute pancreatitis ([1]; splenocytes depleted of T cells): do not protect
- protection of the pancreas against pressure-induced pancreatitis ([1]; systemic administration): significantly protected

Compound: O=P(O)(O)O [sodium phosphate]
- pancreatic injury (survival, pancreatic edema) [2]: protected
- mortality of ethanol-treated mice on the low phosphate diet ([3]; sodium phosphate 50 mg/kg orogastric gavage daily for 5 days, ethanol 3 mg/kg daily for 5 days): significantly reduced

Compound: Clc1cccc(Cl)c1CSc1nnc(-c2cnccn2)s1 [Yoda1]
- LDH release ([4]; Yoda1 25 μM): increased
- [Ca2+]i ([4]; Yoda1 25 μM): caused an elevation

Compound: O=P([O-])(O)O.[Na+] [NaH2PO4]
- caerulein-induced damage (release of trypsin, IL-1β and LDH) [5]: protects
- mitochondrial function (TMRE fluorescence) ([5]; caerulein hyperstimulation, 0 or 5 mM phosphate): dose-dependently restored
- ATP synthesis ([5]; caerulein hyperstimulation, increasing phosphate concentrations): dose-dependently restored

- Yoda1-stimulated LDH release ([4]; phosphate supplementation): reduced
- Yoda1-stimulated elevations in [Ca2+]i ([4]; phosphate supplementation): reduced
Compound: phosphate
- caerulein-induced damage (release of trypsin, IL-1β and LDH) [5]: improved
- ethanol-induced injury ([3]; mice on low phosphate diet, sodium phosphate 50 mg/kg gavage daily for 5 days): protects

Compound: O=P([O-])([O-])O.[Na+].[Na+] [Na2HPO4]
- caerulein-induced LDH release ([5]; buffer containing Na2HPO4 1-10 mM): reduced
- cytosolic ATP levels ([5]; caerulein-treated acini, Na2HPO4 1-10 mM): restored ATP levels in a dose-dependent fashion
- pancreatic MPO levels [6]: reduced
- pancreatic histology [6]: reduced
- serum amylase levels [6]: reduced
- ATP levels ([7]; LPD acini, 0-5 mM Na2HPO4): significantly increased
- TMRE fluorescence intensity ([7]; LPD acini, 0-5 mM Na2HPO4): markedly improved
- LDH ([7]; LPD acini, 5 mM Na2HPO4): significantly decreased
- trypsin activity ([7]; LPD acini, 5 mM Na2HPO4): significantly decreased

Compound: CCO [ethanol]
- TMRE fluorescence intensity ([7]; LPD acini): significantly decreased
- total cellular ATP levels ([7]; LPD-derived acini): significantly decreased
- Lactate dehydrogenase (LDH) [7, 8]: significantly increased
- trypsin activity [7, 8]: significantly increased
- total cellular ATP levels ([7]; ND-derived acini): not observed
- LDH and trypsin activity ([7]; acini from mice on normal diet (ND)): not seen

Compound: CN1CCCC1c1cccnc1 (centres unmarked) [nicotine]
- histopathology [1, 9]: dose-dependently inhibits
- pancreatic MPO levels [1, 9]: dose-dependently inhibits
- pancreatic edema [1, 9]: dose-dependently inhibits
- serum amylase [1, 9]: dose-dependently inhibits

Compound: caerulein
- ATP production [5, 10]: reduced ATP production
- mitochondrial membrane potential (TMRE fluorescence) [5, 10]: caused mitochondrial depolarization
